The text below walks through data of US11267845B2, “Inhibitors of CD73-mediated immunosuppression” (ARCUS BIOSCIENCES, INC., priority 2016, dated 2022).

The target in the assay is T1, CD73 (Homo sapiens, UniProt P21589).
T1 sequence (P21589 27-549): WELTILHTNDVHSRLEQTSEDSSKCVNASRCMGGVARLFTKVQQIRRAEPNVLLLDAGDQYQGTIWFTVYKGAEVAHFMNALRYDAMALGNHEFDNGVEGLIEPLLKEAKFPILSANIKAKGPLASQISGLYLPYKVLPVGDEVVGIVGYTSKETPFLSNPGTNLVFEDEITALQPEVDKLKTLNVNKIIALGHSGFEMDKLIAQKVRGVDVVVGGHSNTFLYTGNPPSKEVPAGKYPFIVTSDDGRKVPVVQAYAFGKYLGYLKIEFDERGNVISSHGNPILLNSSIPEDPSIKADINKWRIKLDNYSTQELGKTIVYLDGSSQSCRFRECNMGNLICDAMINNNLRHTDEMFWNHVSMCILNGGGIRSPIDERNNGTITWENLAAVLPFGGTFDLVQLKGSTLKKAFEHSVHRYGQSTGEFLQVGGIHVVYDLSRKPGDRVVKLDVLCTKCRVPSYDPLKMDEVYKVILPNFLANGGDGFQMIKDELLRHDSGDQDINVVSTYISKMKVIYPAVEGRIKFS
The experiment in a line: CD73 inhibition (Potency: CD73 IC50). The format is biochemical.

Structures are written as SMILES. Some results are limits rather than exact numbers.

As for `COC(=O)OCOP(=O)(CC(=O)N(C)C[C@H]1O[C@@H](n2cnc3c(NC4CCCC4)nc(Cl)nc32)[C@H](O)[C@@H]1O)OCOC(=O)OC` [AA], the IC50 is greater than 1000 nM. `COC(=O)OCOP(=O)(O)CC(=O)N(C)C[C@H]1O[C@@H](n2cnc3c(NC4CCCC4)nc(Cl)nc32)[C@H](O)[C@@H]1O` [AB]: the IC50 was greater than 1000 nM.

Compound `CN(C[C@H]1O[C@@H](n2cnc3c(NC4CCCC4)nc(Cl)nc32)[C@H](O)[C@@H]1O)C(=O)CP(=O)(OCOC(=O)OCC(C)(C)C)OCOC(=O)OCC(C)(C)C` [AC] displayed an IC50 greater than 1000 nM. The result for `CN(C[C@H]1O[C@@H](n2cnc3c(NC4CCCC4)nc(Cl)nc32)[C@H](O)[C@@H]1O)C(=O)CP(=O)(O)OCOC(=O)OCC(C)(C)C` [AD] reads greater than 1000 nM. As for `COCCOC(=O)OCOP(=O)(CC(=O)N(C)C[C@H]1O[C@@H](n2cnc3c(NC4CCCC4)nc(Cl)nc32)[C@H](O)[C@@H]1O)OCOC(=O)OCCOC` [AE], the IC50 is greater than 1000 nM.

Consider `COCCOC(=O)OCOP(=O)(O)CC(=O)N(C)C[C@H]1O[C@@H](n2cnc3c(NC4CCCC4)nc(Cl)nc32)[C@H](O)[C@@H]1O` [AF], for which the IC50 was greater than 1000 nM. The same measure for `CN(C[C@H]1O[C@@H](n2cnc3c(NC4CCCC4)nc(Cl)nc32)[C@H](O)[C@@H]1O)C(=O)CP(=O)(OCOC(=O)C(C)(C)C)OCOC(=O)C(C)(C)C` [AG]: greater than 1000 nM; for `CN(C[C@H]1O[C@@H](n2cnc3c(NC4CCCC4)nc(Cl)nc32)[C@H](O)[C@@H]1O)C(=O)CP(=O)(O)OCOC(=O)C(C)(C)C` [AH]: greater than 1000 nM; for `O=C(CP(=O)(O)O)N(CC1CC1)C[C@H]1O[C@@H](n2cnc3c(NC4CCCC4)nc(Cl)nc32)[C@H](O)[C@@H]1O` [AI]: less than 100 nM.

The compound `CC(C)OC(=O)OCOP(=O)(CC(=O)N(CC1CC1)C[C@H]1O[C@@H](n2cnc3c(NC4CCCC4)nc(Cl)nc32)[C@H](O)[C@@H]1O)OCOC(=O)OC(C)C` [AJ] came in with an IC50 greater than 1000 nM. The same measure for `CC(C)OC(=O)OCOP(=O)(O)CC(=O)N(CC1CC1)C[C@H]1O[C@@H](n2cnc3c(NC4CCCC4)nc(Cl)nc32)[C@H](O)[C@@H]1O` [AK]: greater than 1000 nM; for `CN(C[C@H]1O[C@@H](n2cnc3c(N[C@H]4CCOC4)nc(Cl)nc32)[C@H](O)[C@@H]1O)C(=O)CP(=O)(O)O` [AL]: 100 to 1000 nM; for `CC(C)OC(=O)OCOP(=O)(CC(=O)N(C)C[C@H]1O[C@@H](n2cnc3c(N[C@H]4CCOC4)nc(Cl)nc32)[C@H](O)[C@@H]1O)OCOC(=O)OC(C)C` [AM]: greater than 1000 nM.

As to `CC(C)OC(=O)OCOP(=O)(O)CC(=O)N(C)C[C@H]1O[C@@H](n2cnc3c(N[C@H]4CCOC4)nc(Cl)nc32)[C@H](O)[C@@H]1O` [AN], the IC50 was greater than 1000 nM. Take `COCCOC(=O)OCOP(=O)(CC(=O)N(C)C[C@H]1O[C@@H](n2cnc3c(N[C@H]4CCOC4)nc(Cl)nc32)[C@H](O)[C@@H]1O)OCOC(=O)OCCOC` [AO]: the IC50 is greater than 1000 nM. The result for `CCOC(=O)OCOP(=O)(CC(=O)N(C)C[C@H]1O[C@@H](n2cnc3c(N[C@H]4CCOC4)nc(Cl)nc32)[C@H](O)[C@@H]1O)OCOC(=O)OCC` [AP] reads greater than 1000 nM; that for `CCOC(=O)OCOP(=O)(O)CC(=O)N(C)C[C@H]1O[C@@H](n2cnc3c(N[C@H]4CCOC4)nc(Cl)nc32)[C@H](O)[C@@H]1O` [AQ], greater than 1000 nM; that for `CN(C[C@H]1O[C@@H](n2cnc3c(N[C@H]4CCOC4)nc(Cl)nc32)[C@H](O)[C@@H]1O)C(=O)CP(=O)(OCOC(=O)OCC(C)(C)C)OCOC(=O)OCC(C)(C)C` [AR], greater than 1000 nM. The same measure for `CN(C[C@H]1O[C@@H](n2cnc3c(N[C@H]4CCOC4)nc(Cl)nc32)[C@H](O)[C@@H]1O)C(=O)CP(=O)(O)OCOC(=O)OCC(C)(C)C` [AS]: greater than 1000 nM; for `O=C(CP(=O)(O)O)NC[C@H]1O[C@@H](n2cnc3c(NC4CCCC4)nc(Cl)nc32)[C@H](O)[C@@H]1O` [A]: 100 to 1000 nM; for `CC(C)N(C[C@H]1O[C@@H](n2cnc3c(NC4CCCC4)nc(Cl)nc32)[C@H](O)[C@@H]1O)C(=O)CP(=O)(O)O` [B]: 100 to 1000 nM. The result for `CCN(C[C@H]1O[C@@H](n2cnc3c(NC4CCCC4)nc(Cl)nc32)[C@H](O)[C@@H]1O)C(=O)CP(=O)(O)O` [C] reads less than 100 nM; that for `O=C(CP(=O)(O)O)N(Cc1ccccc1)C[C@H]1O[C@@H](n2cnc3c(NC4CCCC4)nc(Cl)nc32)[C@H](O)[C@@H]1O` [D], less than 100 nM; that for `O=C(O)CN(C[C@H]1O[C@@H](n2cnc3c(NC4CCCC4)nc(Cl)nc32)[C@H](O)[C@@H]1O)C(=O)CP(=O)(O)O` [E], less than 100 nM. For the compound `CC(C)OC(=O)[C@H](C)NP(=O)(CC(=O)N(C)C[C@H]1O[C@@H](n2cnc3c(NC4CCCC4)nc(Cl)nc32)[C@H](O)[C@@H]1O)N[C@@H](C)C(=O)OC(C)C` [Example P], the IC50 was greater than 1000 nM. The same measure for `O=C(CP(=O)(O)O)N(CCO)C[C@H]1O[C@@H](n2cnc3c(NC4CCCC4)nc(Cl)nc32)[C@H](O)[C@@H]1O` [F]: less than 100 nM; for `CN(C[C@H]1O[C@@H](n2cnc3c(NC4CCCC4)nc(Cl)nc32)[C@@H](F)[C@@H]1O)C(=O)CP(=O)(O)O` [G]: greater than 1000 nM; for `CCN(C[C@H]1O[C@@H](n2cnc3c(N(C)C4CCCC4)nc(Cl)nc32)[C@H](O)[C@@H]1O)C(=O)CP(=O)(O)O` [H]: less than 100 nM. The same measure for `CN(c1nc(Cl)nc2c1ncn2[C@@H]1O[C@H](CN(CC2CC2)C(=O)CP(=O)(O)O)[C@@H](O)[C@H]1O)C1CCCC1` [I]: less than 100 nM; for `CN(C[C@H]1O[C@@H](n2ncc3c(NC4CCCC4)nc(Cl)nc32)[C@H](O)[C@@H]1O)C(=O)CP(=O)(O)O` [J]: 100 to 1000 nM. In turn, `O=C(CP(=O)(O)O)N(CC1CC1)C[C@H]1O[C@@H](n2ncc3c(NC4CCCC4)nc(Cl)nc32)[C@H](O)[C@@H]1O` [K] registered an IC50 of less than 100 nM. The same measure for `CN(C[C@H]1O[C@@H](n2cnc3c(NC4CCCC4)nc(Cl)nc32)[C@H](O)[C@@H]1O)C(=O)CP(=O)(O)O` [L]: less than 100 nM; for `CC(C)OC(=O)[C@H](C)NP(=O)(CC(=O)N(C)C[C@H]1O[C@@H](n2cnc3c(NC4CCCC4)nc(Cl)nc32)[C@H](O)[C@@H]1O)Oc1ccccc1` (stereo partly drawn) [M]: greater than 1000 nM; for `COC(=O)[C@H](C)NP(=O)(CC(=O)N(C)C[C@H]1O[C@@H](n2cnc3c(NC4CCCC4)nc(Cl)nc32)[C@H](O)[C@@H]1O)Oc1ccccc1` (stereo partly drawn) [N]: greater than 1000 nM. The result for `CC(C)OC(=O)[C@H](C)NP(=O)(CC(=O)N(C)C[C@H]1O[C@@H](n2cnc3c(NC4CCCC4)nc(Cl)nc32)[C@H](O)[C@@H]1OC(=O)C(C)C)Oc1ccccc1` (stereo partly drawn) [O] reads greater than 1000 nM; that for `CN(C[C@H]1O[C@@H](n2cnc3c(NC4CCCC4)nc(Cl)nc32)[C@H](O)[C@@H]1O)C(=O)CP1(=O)OCCC(c2cccc(Cl)c2)O1` (stereo partly drawn) [Q], greater than 1000 nM.

Take `CN(C[C@H]1O[C@@H](n2cnc3c(NC4CCCC4)nc(Cl)nc32)[C@H](O)[C@@H]1O)C(=O)CP1(=O)Nc2ccccc2CO1` (stereo partly drawn) [R]: the IC50 is greater than 1000 nM. The result for `Cc1cccc2c1NP(=O)(CC(=O)N(C)C[C@H]1O[C@@H](n3cnc4c(NC5CCCC5)nc(Cl)nc43)[C@H](O)[C@@H]1O)OC2` (stereo partly drawn) [S] reads greater than 1000 nM. The result for `CN(C[C@H]1O[C@@H](n2cnc3c(NC4CCCC4)nc(Cl)nc32)[C@H](O)[C@@H]1O)C(=O)CP1(=O)OCc2ccccc2O1` (stereo partly drawn) [T] reads greater than 1000 nM. The result for `CN(C[C@H]1O[C@@H](n2cnc3c(NC4CCCC4)nc(Cl)nc32)[C@H](O)[C@@H]1O)C(=O)CP(=O)(Oc1ccccc1)Oc1ccccc1` [U] reads greater than 1000 nM.

Compound `CN(C[C@H]1O[C@@H](n2cnc3c(NC4CCCC4)nc(Cl)nc32)[C@H](O)[C@@H]1O)C(=O)CP(=O)(O)Oc1ccccc1` [V] returned an IC50 greater than 1000 nM. The same measure for `CC(C)OC(=O)OCOP(=O)(CC(=O)N(C)C[C@H]1O[C@@H](n2cnc3c(NC4CCCC4)nc(Cl)nc32)[C@H](O)[C@@H]1O)OCOC(=O)OC(C)C` [W]: greater than 1000 nM; for `CC(C)OC(=O)OCOP(=O)(O)CC(=O)N(C)C[C@H]1O[C@@H](n2cnc3c(NC4CCCC4)nc(Cl)nc32)[C@H](O)[C@@H]1O` [X]: greater than 1000 nM; for `CCOC(=O)OCOP(=O)(CC(=O)N(C)C[C@H]1O[C@@H](n2cnc3c(NC4CCCC4)nc(Cl)nc32)[C@H](O)[C@@H]1O)OCOC(=O)OCC` [Y]: greater than 1000 nM. The result for `CCOC(=O)OCOP(=O)(O)CC(=O)N(C)C[C@H]1O[C@@H](n2cnc3c(NC4CCCC4)nc(Cl)nc32)[C@H](O)[C@@H]1O` [Z] reads greater than 1000 nM.
